Data published in patent publication US7445892B2, “Method of testing anticancer agent-sensitivity of tumor cells” (Eisai Co., Ltd., priority 2000, dated 2008).

System: HCT116-C9
Test: Gene expression analysis using DNA microarray (GeneChip Hu6800)
Assay type: cell-based, human
Conditions: HCT116-C9, 8 μM, 12 hours, compared with cells without drug; change of 1.8 times or more counted
Procedure: All cells were cultured in RPMI-1640 medium supplemented with 10% of fetal bovine serum, 100 units/ml of penicillin and 100 μg/ml of streptomycin at 37° C. under 5% CO2.
E7070, or ER-35748 or ER-68487 represented by the structural formula shown below was added to the media of an E7070-susceptible strain HCT116-C9 and an E7070-resistant strain HCT116-C9-C1 at a concentration of 8 μM and the cells were cultured. Then, cells were recovered after 0, 3, 6 and 12 hours. Further, the cells were also cultured for 12 hours without adding the drug and recovered.
Total RNA was extracted from these cells and subjected to the subsequent analyses. The RNA extracted from the cells cultured for 12 hours with the drug and the RNA from extracted the cells cultured for 12 hours without the drug were used for the gene expression analysis using a DNA microarray described in Example 2. HCT116-C9 was a substrain isolated from HCT116 derived from human colon cancer (American Type Culture Collection, Manassas, Va., U.S.A.), and HCT116-C9-C1 was an E7070-resistant substrain obtained by culturing this HCT116-C9 in the presence of E7070 with gradually increasing the E7070 concentration.
Total RNA was extracted from the recovered cells by using TRIZOL Reagent (Life Technologies Oriental) according to the attached operation manual.
Each RNA obtained in Example 1 was dissolved in 100 μl of sterilized water treated with diethyl pyrocarbonate (DEPC) and further purified by using RNeasy Column (QIAGEN), and double-stranded cDNA was synthesized by using SuperScript Choice System (Life Technologies Oriental) and a T7-d(T)24 primer.
First, to 10 μg of RNA, 5 μM T7-d(T)24 primer, 1×First strand buffer, 10 mM DTT, 500 μM dNTP mix and 20 units/μl of SuperScript II Reverse Transcriptase were added and the mixture was allowed to react at 42° C. for 1 hour to synthesize single-stranded DNA. Subsequently, to the DNA, 1×Second strand buffer, 200 μM dNTP mix, 67 U/ml of DNA ligase, 270 U/ml of DNA polymerase I and 13 U/ml of RNase H were added and the mixture was allowed to react at 16° C. for 2 hours to synthesize double-stranded cDNA. Further, to the cDNA, 67 U/ml of T4 DNA polymerase I was added and the mixture was allowed to react at 16° C. for 5 minutes and then 10 μl of 0.5 M EDTA was added to terminate the reaction.
The obtained cDNA was purified with phenol/chloroform, and a labeling reaction with biotinylated UTP and CTP was carried out by using RNA Transcript Labeling Kit (Enzo Diagnostics) according to the attached operation manual. The reaction product was purified with Rneasy Column and heated in 200 mM Tris/acetate buffer (pH 8.1), 150 mM magnesium acetate, 50 mM potassium acetate at 94° C. for 35 minutes to obtain fragment cRNA.
The fragmented cRNA was hybridized with GeneChip Hu6800 (Affymetrix) in 100 mM MES, 1 M sodium salt, 20 mM EDTA and 0.01% Tween 20 at 45° C. for 16 hours. After the hybridization, the GeneChip was washed and stained according to the protocol EukGE-WS2 attached to Affymetrix Fluidics Station. For the staining, streptavidin-phycoerythrin and biotinylated goat anti-streptavidin antibody were used. The stained GeneChip was scanned by using HP Argon Ion Laser Confocal Scanner (Hewlett Packard) to measure its fluorescence intensity. The fluorescence was measured at 570 nm by using an excitation light at 488 nm.
The quantitative data analyses were all conducted by using GeneChip Software (Affymetrix). To quantify RNA, an average of “differences [(Perfect match hybridization signal)−(Mismatch signal)]” was obtained for each probe family.
E7070, or ER-35748 or ER-68487 was added to a medium for HCT116-C9 at a concentration of 8 μM and culture was performed. The results of analysis of RNA extracted from the cells at 12 hours by using GeneChip were compared with the results of RNA analysis for HCT116-C9 cells obtained in the same manner except for not adding the drug. […]

SMILES	expression levels of the genes listed in Table 1	expression levels of the genes listed in Table 2
N#Cc1ccc(S(=O)(=O)Nc2cccc3c(Cl)c[nH]c23)cc1 [ER-35748]	increased	decreased
N#Cc1ccc(S(=O)(=O)Nc2cccc3c(C#N)c[nH]c23)cc1 [ER-68487]	increased	decreased
